We go through eleven compounds from ChEMBL document CHEMBL1201862, “PubChem BioAssay data set” (2004).

Structures are written as SMILES.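 Test compounds were applied to cells in 96-well plates for 48 hours at 5 doses. GI50 marks 50% less growth.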 Calls of active or inactive are those of the source. Cut-off read from the data, not from the text of the source: active = GI50 up to about 1.1 µM and inactive = higher.

Test systems include BT-549; CCRF-CEM; DU-145; HL-60; HOP-62; HT-29; Hs-578T; LOX IMVI; MDA-MB-435; MDA-N; MOLT-4; NCI-H522; SF-268; SK-MEL-2; SK-MEL-5; SN12C; SNB-19; T47D; SR.
Holding throughout (assay): NCI-60 cell line screen, 48 h

Take `CC1CC[C@@]2(OC1)O[C@H]1[C@H](O)[C@H]3[C@@H]4CC[C@H]5C[C@@H](OC6OC(CO)C(OC7OC(CO)C(O)C(OC8OCC(O)C(O)C8O)C7OC7OC(CO)C(O)C(O)C7OC7OC(CO)C(O)C(O)C7O)C(O)C6O)[C@H](O)C[C@]5(C)[C@H]4CC[C@]3(C)[C@H]1[C@@H]2C` (stereo partly specified): the GI50 with BT-549 is > 10 µM (inactive); with CCRF-CEM, 0.942 µM (active); in the experiment with DU-145, > 10 µM (inactive); in the experiment with HL-60, 1.54 µM (inactive); with HOP-62, > 10 µM (inactive); with HT-29, > 10 µM (inactive). Besides, the GI50 was 3.67 µM (inactive) with Hs-578T; > 10 µM (inactive) in the experiment with LOX IMVI; > 10 µM (inactive) with MDA-MB-435; > 10 µM (inactive) with MDA-N; 0.144 µM (active) in the experiment with MOLT-4; 2.78 µM (inactive) in the experiment on NCI-H522. The GI50 in the experiment on SF-268 was > 10 µM (inactive); with SK-MEL-2 it was > 10 µM (inactive); with SK-MEL-5, > 10 µM (inactive); in the experiment with SN12C, 3.89 µM (inactive); in the experiment with SNB-19, 9.35 µM (inactive); with T47D, > 10 µM (inactive).

In the case of `COc1ccc(/C=N/n2c(Cc3ccccc3)n[nH]c2=O)c(OC)c1`, the GI50 with BT-549 was 8.2 µM (inactive); with CCRF-CEM, > 100 µM (inactive); with DU-145, > 100 µM (inactive); with HOP-62, 20.9 µM (inactive); in the experiment on HT-29 it was 19.5 µM (inactive); in the experiment with Hs-578T it was 11.2 µM (inactive). In addition, the GI50 with LOX IMVI was 27.5 µM (inactive); in the experiment with MDA-MB-435 it was > 100 µM (inactive); with MDA-N it was > 100 µM (inactive); in the experiment with MOLT-4, > 100 µM (inactive); in the experiment with NCI-H522, > 52 µM (inactive); with SF-268 it was 15.5 µM (inactive). The GI50 with SK-MEL-2 is > 59.8 µM (inactive); with SK-MEL-5, > 71.4 µM (inactive); in the experiment on SN12C it was > 100 µM (inactive); with SNB-19 it was 28.2 µM (inactive); with SR, > 100 µM (inactive); with T47D, > 100 µM (inactive).

In the case of `CC1=C(C)SC(=C2Sc3c(n(C)c(=O)n(C)c3=O)S2)S1`, the GI50 in the experiment on BT-549 is 57.1 µM (inactive); in the experiment with CCRF-CEM, > 100 µM (inactive); in the experiment on DU-145, > 100 µM (inactive); with HL-60, > 100 µM (inactive); in the experiment with HOP-62 it was 18.7 µM (inactive); with HT-29, 76.9 µM (inactive). In addition, the GI50 with Hs-578T is 61.4 µM (inactive); in the experiment with LOX IMVI, 48.5 µM (inactive); in the experiment with MDA-MB-435, 98.6 µM (inactive); with MDA-N, 47.6 µM (inactive); in the experiment on MOLT-4 it was > 100 µM (inactive); in the experiment with NCI-H522, 57.3 µM (inactive). Also, the GI50 in the experiment on SF-268 was 43.8 µM (inactive); with SK-MEL-2, 22.3 µM (inactive); in the experiment on SK-MEL-5, 33.7 µM (inactive); in the experiment on SN12C, 35 µM (inactive); with SNB-19, 32.3 µM (inactive); in the experiment with T47D, > 100 µM (inactive).

For `O=C1/C(=C/c2ccccc2S)N=C(c2ccccc2)N1c1nc2ccc(Sc3ccccc3)cc2[nH]1`, the GI50 in the experiment on BT-549 was 22.1 µM (inactive); in the experiment on CCRF-CEM, 21 µM (inactive); in the experiment with DU-145 it was 34.9 µM (inactive); in the experiment on HL-60 it was 19.8 µM (inactive); in the experiment with HOP-62, 41.9 µM (inactive); in the experiment with HT-29, 20.2 µM (inactive). Besides, the GI50 is 28.2 µM (inactive) with Hs-578T; 34 µM (inactive) in the experiment on LOX IMVI; 12.4 µM (inactive) with MDA-MB-435; 14.7 µM (inactive) in the experiment with MDA-N; 35.4 µM (inactive) in the experiment with MOLT-4; 22.8 µM (inactive) in the experiment with NCI-H522. The GI50 with SF-268 was 38.3 µM (inactive); in the experiment on SK-MEL-2, 17.8 µM (inactive); with SK-MEL-5, 18.4 µM (inactive); in the experiment on SN12C, 26.4 µM (inactive); in the experiment on SNB-19, 45.3 µM (inactive); in the experiment on T47D it was 28.8 µM (inactive).

For the compound `Cc1cccc2c(N)c3cccc(C(=O)NCC[N+](C)(C)Cc4ccc([N+](=O)[O-])s4)c3nc12`, the GI50 is 33.5 µM (inactive) with BT-549; 1.85 µM (inactive) in the experiment with CCRF-CEM; 9.1 µM (inactive) in the experiment on DU-145; 4.21 µM (inactive) in the experiment on HOP-62; 4.07 µM (inactive) with HT-29; 8.51 µM (inactive) in the experiment on Hs-578T. Moreover, the GI50 with LOX IMVI is 3.84 µM (inactive); with MDA-MB-435, 21.9 µM (inactive); in the experiment on MDA-N, 16 µM (inactive); with MOLT-4, 0.472 µM (active); in the experiment on NCI-H522, 5.28 µM (inactive); in the experiment on SF-268 it was 4.78 µM (inactive). Moreover, the GI50 is 41 µM (inactive) in the experiment with SK-MEL-2; 11.6 µM (inactive) in the experiment on SK-MEL-5; 0.424 µM (active) in the experiment with SN12C; 3.22 µM (inactive) in the experiment on SNB-19; 1.19 µM (inactive) in the experiment on SR; 13.6 µM (inactive) in the experiment on T47D.

In the case of `C=CCCCC1(C)CCCCNC1=O` (stereo unspecified), the GI50 in the experiment on BT-549, in the experiment on CCRF-CEM, with DU-145, in the experiment with HL-60, in the experiment on HOP-62 and in the experiment with HT-29 was > 10 µM (inactive) in each case. In addition, the GI50 in the experiment with Hs-578T, in the experiment with LOX IMVI, in the experiment on MDA-MB-435, in the experiment on MDA-N, with MOLT-4 and in the experiment with SF-268 was > 10 µM (inactive) each time. Besides, the GI50 in the experiment on SK-MEL-2, with SK-MEL-5, with SN12C, with SNB-19, with SR and in the experiment with T47D was > 10 µM (inactive) in each case.

For `O=Cc1ccc(-c2cc(C=O)c(-c3cccs3)[nH]2)s1`, the GI50 in the experiment on BT-549 is 28.2 µM (inactive); with CCRF-CEM, 20 µM (inactive); in the experiment on DU-145, 42.6 µM (inactive); with HOP-62 it was 21.3 µM (inactive); with HT-29, 25.1 µM (inactive); with Hs-578T, 23.4 µM (inactive). Besides, the GI50 with LOX IMVI is 25.3 µM (inactive); in the experiment on MDA-MB-435 it was 25.6 µM (inactive); in the experiment on MDA-N, 18.6 µM (inactive); in the experiment with MOLT-4 it was 20.2 µM (inactive); with NCI-H522, 10.3 µM (inactive); with SF-268, > 75 µM (inactive). In addition, the GI50 in the experiment with SK-MEL-2 was 46.2 µM (inactive); in the experiment with SK-MEL-5 it was 23 µM (inactive); in the experiment with SN12C, 53.6 µM (inactive); in the experiment with SNB-19, 44.9 µM (inactive); in the experiment with SR, 4.05 µM (inactive); in the experiment with T47D it was 8.85 µM (inactive).

`COC1=N[C@H](C(C)C)C(OC)=N[C@H]1Cc1ccc(C[C@@H]2N=C(OC)[C@@H](C(C)C)N=C2OC)s1`: the GI50 in the experiment on BT-549 is > 100 µM (inactive); in the experiment with CCRF-CEM, 19.5 µM (inactive); with DU-145 it was 33.2 µM (inactive); with HOP-62, 54.8 µM (inactive); in the experiment on HT-29, 26.2 µM (inactive); in the experiment with Hs-578T, 88.3 µM (inactive). For the same compound, the GI50 in the experiment with LOX IMVI is 48.6 µM (inactive); in the experiment on MDA-MB-435, 33.1 µM (inactive); in the experiment with MDA-N, 49.3 µM (inactive); in the experiment on MOLT-4, 20 µM (inactive); in the experiment with NCI-H522, 23.7 µM (inactive); in the experiment with SF-268, 67.8 µM (inactive). For the same compound, the GI50 with SK-MEL-2 was 14.3 µM (inactive); in the experiment with SK-MEL-5, 20.8 µM (inactive); in the experiment on SN12C it was 43.3 µM (inactive); with SNB-19, 54.5 µM (inactive); in the experiment with SR it was 19.5 µM (inactive); with T47D, 13.5 µM (inactive).

Take `Cc1cc(C)c(C#N)c(SC(=S)NC(=O)c2ccccc2)n1`: the GI50 in the experiment on BT-549, with CCRF-CEM, in the experiment on DU-145, in the experiment on HOP-62, with HT-29 and in the experiment on Hs-578T was > 100 µM (inactive) each time. For the same compound, the GI50 in the experiment on MDA-MB-435, with MDA-N, in the experiment with MOLT-4, in the experiment on NCI-H522, in the experiment on SF-268 and with SK-MEL-2 was > 100 µM (inactive) throughout. The GI50 with SK-MEL-5, in the experiment on SN12C, in the experiment on SNB-19, in the experiment on SR and in the experiment on T47D was > 100 µM (inactive) throughout.

Regarding `COC([C@@H](OC(=O)c1ccccc1)[C@H](OC(=O)c1ccccc1)C(O)COC(=O)c1ccccc1)n1cc(C)c(=O)[nH]c1=O` (stereo partly specified), the GI50 is 21.3 µM (inactive) with BT-549; 44.5 µM (inactive) in the experiment on DU-145; 35.3 µM (inactive) in the experiment on HOP-62; 15.7 µM (inactive) in the experiment with HT-29; 28.4 µM (inactive) in the experiment with Hs-578T; 15.1 µM (inactive) in the experiment on LOX IMVI. For the same compound, the GI50 with MDA-MB-435 is 20 µM (inactive); in the experiment with MDA-N it was 30.9 µM (inactive); with MOLT-4, 3.6 µM (inactive); with NCI-H522, 20.4 µM (inactive); in the experiment with SF-268, 29.7 µM (inactive); in the experiment on SK-MEL-2, 25.7 µM (inactive). The GI50 with SK-MEL-5 is 11.7 µM (inactive); in the experiment on SN12C, 43.2 µM (inactive); in the experiment with SNB-19, 22.2 µM (inactive); in the experiment with SR, 29.7 µM (inactive); in the experiment on T47D, 11.6 µM (inactive).

On to `O=C1c2scc(-c3ccc(F)cc3)c2-n2cccc21`, for which the GI50 is 13.6 µM (inactive) with BT-549; 28.6 µM (inactive) with CCRF-CEM; 88.1 µM (inactive) with DU-145; 15.6 µM (inactive) in the experiment with HOP-62; 20.8 µM (inactive) with HT-29; 20.3 µM (inactive) in the experiment with Hs-578T. Also, the GI50 in the experiment with LOX IMVI was 24.6 µM (inactive); in the experiment with MDA-MB-435, 11.1 µM (inactive); in the experiment on MDA-N it was 8.67 µM (inactive); in the experiment on MOLT-4, 27.9 µM (inactive); with NCI-H522, 17.3 µM (inactive); in the experiment on SF-268, 36.4 µM (inactive). In addition, the GI50 was 35.2 µM (inactive) in the experiment on SK-MEL-2; 22.4 µM (inactive) with SK-MEL-5; 20.6 µM (inactive) in the experiment on SN12C; 19.8 µM (inactive) in the experiment on SNB-19; 11 µM (inactive) in the experiment with SR; 13.6 µM (inactive) in the experiment on T47D.
